# Results published in patent publication US8822449B2, “Substituted aminoindanes and analogs thereof, and the pharmaceutical use thereof” (Sanofi, priority 2008, dated 2014).
# Target: T1, sodium-proton exchanger of subtype 3 (NHE3) (Homo sapiens, UniProt P48764)
# T1 construct: expressed in transfected cells
# T1 sequence (P48764 26-834): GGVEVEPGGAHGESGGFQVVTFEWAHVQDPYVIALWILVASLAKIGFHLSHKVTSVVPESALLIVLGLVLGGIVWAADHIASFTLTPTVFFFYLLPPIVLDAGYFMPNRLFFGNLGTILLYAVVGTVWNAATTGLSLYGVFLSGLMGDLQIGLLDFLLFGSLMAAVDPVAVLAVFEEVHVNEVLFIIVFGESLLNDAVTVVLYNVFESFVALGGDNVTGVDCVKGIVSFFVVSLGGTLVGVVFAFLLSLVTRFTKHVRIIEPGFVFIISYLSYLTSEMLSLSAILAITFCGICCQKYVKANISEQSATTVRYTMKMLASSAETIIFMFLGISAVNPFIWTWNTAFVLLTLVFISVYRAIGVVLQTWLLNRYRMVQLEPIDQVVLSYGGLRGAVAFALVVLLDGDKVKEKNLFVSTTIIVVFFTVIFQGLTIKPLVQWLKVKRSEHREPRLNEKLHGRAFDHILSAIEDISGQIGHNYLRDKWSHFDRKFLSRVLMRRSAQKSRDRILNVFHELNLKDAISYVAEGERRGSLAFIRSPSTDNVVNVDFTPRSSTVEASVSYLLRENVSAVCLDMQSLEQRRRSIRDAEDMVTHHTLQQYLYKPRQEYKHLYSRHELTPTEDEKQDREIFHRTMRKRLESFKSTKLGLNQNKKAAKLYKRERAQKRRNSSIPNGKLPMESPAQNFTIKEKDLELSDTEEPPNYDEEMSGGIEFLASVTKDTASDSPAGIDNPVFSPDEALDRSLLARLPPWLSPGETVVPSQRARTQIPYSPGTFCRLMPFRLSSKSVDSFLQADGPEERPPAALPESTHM
# Assay: Recovery of intracellular pH (pHi) after acidification in LAP1 cells stably expressing NHE3 (BCECF fluorescence, FLIPR)
# Format: cell-based
# Conditions: LAP1 cells stably expressing NHE3; pH recovery after acidification; range 1 is % inhibition at 10 μM; read-out: Activity range (inhibitory effect on NHE3)
inhibition at 10 µM,IC50,Compound
20 to 50%,,"N[C@@H]1CCCN([C@H]2CCc3ccccc3[C@@H]2Oc2ccccc2Br)C1 (racemic) [Example 36, (R)-1-[rac-trans-(1,2)-1-(2-bromophenoxy)-1,2,3,4-tetrahydronaphthalen-2-yl]piperidin-3-ylamine]"
,1 to 10 µM,"CN1CCN(c2cccc(O[C@H]3c4cc(Cl)cc(F)c4C[C@@H]3N3CC[C@@H](O)C3)c2)C1=O [Example 320, 1-{3-[trans-(1S,2S)-6-chloro-4-fluoro-2-((R)-3-hydroxypyrrolidin-1-yl)indan-1-yloxy]phenyl}-3-methylimidazolidin-2-one]"
,< 1 µM,"N[C@@H]1CCCN([C@@H]2Cc3ccccc3[C@H]2Oc2ccc(S(N)(=O)=O)c(Cl)c2Cl)C1 (racemic) [Example 518, 4-[rac-trans-(1,2)-2-((R)-3-aminopiperidin-1-yl)indan-1-yloxy]-2,3-dichlorobenzenesulfonamide]"
,1 to 10 µM,"N[C@H]1CCCN([C@@H]2Cc3ccccc3[C@H]2Oc2ccc(-n3cncn3)cc2)C1 (racemic) [Example 172, (S)-1-[rac-trans-(1,2)-1-(4-[1,2,4]triazol-1-ylphenoxy)indan-2-yl]piperidin-3-ylamine]"
,1 to 10 µM,"Cc1nnc(C(C)C)n1-c1ccc(O[C@H]2c3cc(Cl)cc(F)c3C[C@@H]2N2CC[C@@H](O)C2)cc1 [Example 721, (R)-1-{trans-(1S,2S)-6-Chloro-4-fluoro-1-[4-(3-isopropyl-5-methyl-[1,2,4]triazol-4-yl)-phenoxy]-indan-2-yl}-pyrrolidin-3-ol]"
20 to 50%,,"CS(=O)(=O)c1ccc(O[C@@H]2c3ccccc3C[C@@H]2n2ccnc2)cc1 (racemic) [Example 261, 1-[rac-cis-(1,2)-1-(4-methanesulfonylphenoxy)indan-2-yl]-1H-imidazole]"
,< 1 µM,"Cc1nnc(C)n1-c1ccc(O[C@H]2c3cc(Cl)ccc3C[C@@H]2N2CCCC2)c(F)c1 [Example 501, 4-[4-(trans-(1S,2S)-6-chloro-2-pyrrolidin-1-ylindan-1-yloxy)-3-fluorophenyl]-3,5-dimethyl-4H-[1,2,4]triazole]"
,1 to 10 µM,"N#Cc1ccc(O[C@H]2c3cc(Cl)cc(Cl)c3C[C@@H]2N2CC[C@@H](O)C2)c(F)c1 [Example 554, 4-[trans-(1S,2S)-4,6-dichloro-2-((R)-3-hydroxypyrrolidin-1-yl)indan-1-yloxy]-3-fluorobenzonitrile]"
20 to 50%,,"CS(=O)(=O)c1ccc(O[C@H]2c3ccccc3C[C@@H]2N2CCCC2)cc1Cl (racemic) [Example 268, 1-[rac-trans-(1,2)-1-(3-chloro-4-methanesulfonylphenoxy)indan-2-yl]pyrrolidine]"
,1 to 10 µM,"NCC1CCN([C@@H]2Cc3ccccc3[C@H]2Oc2ccnc3ccccc23)CC1 (racemic) [Example 622, C-{1-[rac-trans-(1,2)-1-(quinolin-4-yloxy)indan-2-yl]piperidin-4-yl}methylamine]"
,< 1 µM,"Cc1nnc(C)n1-c1ccc(O[C@H]2c3cc(F)cc(F)c3C[C@@H]2N2CC[C@@H](O)C2)c(Cl)c1 [Example 109, (R)-1-{(1S,2S)-1-[2-chloro-4-(3,5-dimethyl-[1,2,4]triazol-4-yl)phenoxy]-4,6-difluoroindan-2-yl}pyrrolidin-3-ol]"
,< 1 µM,"N[C@@H]1CCCN([C@H]2CCc3ccccc3[C@@H]2Oc2ccc3ccncc3c2)C1 (racemic) [Example 84, (R)-1-[rac-trans-(1,2)-1-(isoquinolin-7-yloxy)-1,2,3,4-tetrahydronaphthalen-2-yl]piperidin-3-ylamine]"
,1 to 10 µM,"Cc1ccc(O[C@@H]2c3ccccc3C[C@H]2N2CCC(CN)CC2)c(Br)c1 (racemic) [Example 603, C-{1-[rac-trans-(1,2)-1-(2-bromo-4-methylphenoxy)indan-2-yl]piperidin-4-yl}methylamine]"
20 to 50%,,"CC(=O)Nc1cccc(O[C@H]2c3ccccc3CC[C@@H]2N2CCC[C@H](N)C2)c1 (racemic) [Example 684, N-{3-[rac-trans-(1,2)-2-((S)-3-aminopiperidin-1-yl)-1,2,3,4-tetrahydronaphthalen-1-yloxy]phenyl}acetamide]"
,1 to 10 µM,"Cn1ccn(-c2ccc(O[C@H]3c4cc(Cl)cc(F)c4C[C@@H]3NC3CCCC3)c(F)c2)c1=O [Example 755, 1-[4-(trans-(1S,2S)-6-Chloro-2-cyclopentylamino-4-fluoro-indan-1-yloxy)-3-fluoro-phenyl]-3-methyl-1,3-dihydro-imidazol-2-one]"
,< 1 µM,"N[C@@H]1CCCN([C@@H]2Cc3ccccc3[C@H]2Oc2ccc(-n3ccnc3)cc2)C1 (racemic) [Example 72, (R)-1-[rac-trans-(1,2)-1-(4-imidazol-1-ylphenoxy)indan-2-yl]piperidin-3-ylamine]"
,< 1 µM,"CC(=O)Nc1cccc(O[C@H]2c3cc(F)cc(Cl)c3C[C@@H]2N2CCC[C@@H](N)C2)c1 (racemic) [Example 677, N-{3-[rac-trans-(1,2)-2-((R)-3-aminopiperidin-1-yl)-4-chloro-6-fluoroindan-1-yloxy]phenyl}acetamide]"
20 to 50%,,"Clc1ccc2cccc(O[C@H]3c4ccccc4CC[C@@H]3N3CCOCC3)c2n1 (racemic) [Example 395, 2-chloro-8-(rac-trans-(1,2)-2-morpholin-4-yl-1,2,3,4-tetrahydronaphthalen-1-yloxy)quinoline]"
,1 to 10 µM,"NC1CCN([C@@H]2Cc3ccccc3[C@H]2Oc2cccc(N3CCNCC3)c2)C1 (mixture of isomers) [Example 270, 1-[rac-trans-(1,2)-1-(3-piperazin-1-ylphenoxy)indan-2-yl]pyrrolidin-3-ylamine]"
,< 1 µM,"CS(=O)(=O)c1ccc(O[C@H]2c3cc(Cl)cc(Cl)c3C[C@@H]2N2CCCNCC2)c(Cl)c1 [Example 295, 1-[trans-(1S,2S)-4,6-dichloro-1-(2-chloro-4-methanesulfonylphenoxy)indan-2-yl]-[1,4]diazepane]"
20 to 50%,,"Cn1ccn(-c2cc(O[C@H]3c4cc(Cl)cc(Cl)c4C[C@@H]3N3CC[C@@H](O)C3)ccc2Cl)c1=O [Example 310, 1-{2-chloro-5-[(1S,2S)-4,6-dichloro-2-((R)-3-hydroxypyrrolidin-1-yl)indan-1-yloxy]phenyl}-3-methyl-1,3-dihydroimidazol-2-one]"
20 to 50%,,"O=[N+]([O-])c1ccc(O[C@@H]2c3ccccc3C[C@@H]2N2CCOCC2)c(Cl)c1 (racemic) [Example 478, 4-[(1R,2S)-1-(2-chloro-4-nitrophenoxy)indan-2-yl]morpholine]"
,< 1 µM,"Cc1nnc(C)n1-c1ccc(O[C@H]2c3cc(F)cc(F)c3C[C@@H]2N2CC[C@@H](O)C2)c(F)c1 [Example 110, (R)-1-{(1S,2S)-1-[4-(3,5-dimethyl-[1,2,4]triazol-4-yl)-2-fluorophenoxy]-4,6-difluoroindan-2-yl}pyrrolidin-3-ol]"
,< 1 µM,"O=C1OCCN1c1cccc(O[C@H]2c3ccccc3C[C@@H]2N2CCCC2)c1 (racemic) [Example 409, 3-[3-(rac-trans-(1,2)-2-pyrrolidin-1-ylindan-1-yloxy)phenyl]oxazolidin-2-one]"
,< 1 µM,"Cc1nnc(C)n1-c1ccc(O[C@H]2c3cc(Cl)cc(Cl)c3C[C@@H]2N2CC[C@H](N)C2)cc1 [Example 207, (S)-1-{trans-(1S,2S)-4,6-dichloro-1-[4-(3,5-dimethyl-[1,2,4]triazol-4-yl)phenoxy]indan-2-yl}pyrrolidin-3-ylamine]"
,1 to 10 µM,"COCCN1CCCN([C@H]2Cc3c(Cl)cc(Cl)cc3[C@@H]2Oc2ccc(-c3c(C)noc3C)cc2)CC1 [Example 350, 1-{trans-(1S,2S)-4,6-dichloro-1-[4-(3,5-dimethylisoxazol-4-yl)phenoxy]indan-2-yl}-4-(2-methoxyethyl)-[1,4]diazepane]"
,1 to 10 µM,"CS(=O)(=O)c1ccc(O[C@H]2c3ccccc3CC[C@@H]2N2CCC[C@H](N)C2)cc1 (racemic) [Example 182, (S)-1-[rac-trans-(1,2)-1-(4-methanesulfonylphenoxy)-1,2,3,4-tetrahydronaphthalen-2-yl]piperidin-3-ylamine]"
20 to 50%,,"N#Cc1ccc(O[C@H]2c3cc(Cl)cc(Cl)c3C[C@@H]2N2CCC2)c(F)c1 [Example 454, 4-((1S,2S)-2-azetidin-1-yl-4,6-dichloroindan-1-yloxy)-3-fluorobenzonitrile]"
,1 to 10 µM,"NS(=O)(=O)c1ccc(O[C@H]2c3ccccc3C[C@@H]2N2CC[C@@H](CO)C2)cc1 (racemic) [Example 526, 4-[rac-trans-(1,2)-2-((R)-3-Hydroxymethylpyrrolidin-1-yl)indan-1-yloxy]benzenesulfonamide]"
,1 to 10 µM,"CS(=O)(=O)c1ccc(O[C@H]2c3cccc(F)c3C[C@@H]2N2CCCC2)cc1 (racemic) [Example 285, 1-[rac-trans-(1,2)-4-fluoro-1-(4-methanesulfonylphenoxy)indan-2-yl]pyrrolidine]"
